# Assay results published in US9663508B2, “Biaryl acyl-sulfonamide compounds as sodium channel inhibitors” (AMGEN INC., priority 2013, dated 2017).
# Target: human Nav1.7 (Homo sapiens (Human), UniProt Q15858)
# Assay: Nav 1.7 in vitro PatchXpress (PX) assay
# Type: cell-based
# Settings: not given
# Sequence of human Nav1.7 (Q15858 whole entry): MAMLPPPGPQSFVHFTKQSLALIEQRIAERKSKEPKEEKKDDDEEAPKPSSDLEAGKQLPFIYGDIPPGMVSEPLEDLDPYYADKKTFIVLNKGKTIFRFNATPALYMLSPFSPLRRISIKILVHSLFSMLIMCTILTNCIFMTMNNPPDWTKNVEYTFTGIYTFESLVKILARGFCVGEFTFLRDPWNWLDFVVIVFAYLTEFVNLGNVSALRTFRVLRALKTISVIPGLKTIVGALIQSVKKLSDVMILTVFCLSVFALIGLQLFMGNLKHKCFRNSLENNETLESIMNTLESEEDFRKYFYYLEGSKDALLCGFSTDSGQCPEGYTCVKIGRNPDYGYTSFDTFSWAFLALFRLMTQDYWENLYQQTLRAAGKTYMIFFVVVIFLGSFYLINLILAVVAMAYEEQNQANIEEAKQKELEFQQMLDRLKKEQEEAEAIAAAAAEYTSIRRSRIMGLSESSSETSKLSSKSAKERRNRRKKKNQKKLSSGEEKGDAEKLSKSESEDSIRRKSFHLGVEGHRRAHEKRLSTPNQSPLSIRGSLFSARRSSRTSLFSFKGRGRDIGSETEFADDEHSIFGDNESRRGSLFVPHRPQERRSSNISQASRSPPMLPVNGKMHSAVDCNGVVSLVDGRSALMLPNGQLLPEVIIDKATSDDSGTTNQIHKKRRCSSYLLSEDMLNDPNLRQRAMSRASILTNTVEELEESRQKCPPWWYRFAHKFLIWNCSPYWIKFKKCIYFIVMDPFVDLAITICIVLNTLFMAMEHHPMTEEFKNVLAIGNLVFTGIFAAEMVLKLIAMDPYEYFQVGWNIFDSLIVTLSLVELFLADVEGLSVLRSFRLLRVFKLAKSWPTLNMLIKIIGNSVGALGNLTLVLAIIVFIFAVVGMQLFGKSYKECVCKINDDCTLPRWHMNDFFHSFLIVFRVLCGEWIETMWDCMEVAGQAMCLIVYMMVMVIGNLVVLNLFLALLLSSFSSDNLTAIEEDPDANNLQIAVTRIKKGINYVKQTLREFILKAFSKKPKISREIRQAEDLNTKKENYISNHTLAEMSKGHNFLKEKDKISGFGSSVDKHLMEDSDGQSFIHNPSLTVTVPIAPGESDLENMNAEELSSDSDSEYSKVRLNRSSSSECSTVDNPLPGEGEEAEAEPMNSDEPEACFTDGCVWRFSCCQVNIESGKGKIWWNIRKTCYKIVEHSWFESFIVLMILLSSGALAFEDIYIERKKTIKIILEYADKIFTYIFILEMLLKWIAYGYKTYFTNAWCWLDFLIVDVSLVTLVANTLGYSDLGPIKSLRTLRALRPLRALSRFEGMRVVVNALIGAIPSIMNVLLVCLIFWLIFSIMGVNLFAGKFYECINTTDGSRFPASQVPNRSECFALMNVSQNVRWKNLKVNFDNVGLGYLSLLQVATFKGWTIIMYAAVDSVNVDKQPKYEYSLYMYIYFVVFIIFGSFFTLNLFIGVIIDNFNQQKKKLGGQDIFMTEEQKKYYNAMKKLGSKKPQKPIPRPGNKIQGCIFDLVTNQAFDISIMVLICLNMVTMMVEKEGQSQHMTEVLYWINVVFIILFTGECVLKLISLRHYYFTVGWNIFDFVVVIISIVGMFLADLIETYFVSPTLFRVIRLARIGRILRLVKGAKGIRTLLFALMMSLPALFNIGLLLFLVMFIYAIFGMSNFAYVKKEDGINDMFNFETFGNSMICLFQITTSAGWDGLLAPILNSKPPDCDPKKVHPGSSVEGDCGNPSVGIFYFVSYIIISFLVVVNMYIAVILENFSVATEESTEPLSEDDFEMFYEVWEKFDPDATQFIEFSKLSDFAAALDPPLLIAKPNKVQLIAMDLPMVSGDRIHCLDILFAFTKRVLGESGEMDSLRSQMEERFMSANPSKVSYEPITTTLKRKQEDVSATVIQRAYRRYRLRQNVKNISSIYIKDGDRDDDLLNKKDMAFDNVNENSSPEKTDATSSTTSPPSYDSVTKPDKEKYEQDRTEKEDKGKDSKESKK
row,IC50,Compound
1,46.9 nM,"COc1cc(C(=O)NS(C)(=O)=O)ccc1-c1cnc(Oc2cccc(Cl)c2C)c(C#N)c1 [Example 690, 4-(6-(3-chloro-2-methylphenoxy)-5-cyano-3-pyridinyl)-3-methoxy-N-(methylsulfonyl)benzamide]"
2,66.3 nM,"CCc1ccc(C)cc1Oc1ncc(-c2cc(F)c(C(=O)NS(C)(=O)=O)cc2C)cc1Cl [Example 680, 4-(5-chloro-6-(2-ethyl-5-methylphenoxy)-3-pyridinyl)-2-fluoro-5-methyl-N-(methylsulfonyl)benzamide]"
3,92.4 nM,"CS(=O)(=O)NC(=O)c1ccc(-c2cnc(Oc3ccccc3C(F)(F)F)c(Cl)c2)c(OC(F)F)c1 [Example 464, 4-(5-chloro-6-(2-(trifluoromethyl)phenoxy)-3-pyridinyl)-3-(difluoromethoxy)-N-(methylsulfonyl)benzamide]"
4,83.7 nM,"Cc1cc(C(=O)NS(C)(=O)=O)c(F)cc1-c1cnc(Oc2cccc(C(F)(F)F)c2C)c(Cl)c1 [Example 677, 4-(5-chloro-6-(2-methyl-3-(trifluoromethyl)phenoxy)-3-pyridinyl)-2-fluoro-5-methyl-N-(methylsulfonyl)benzamide]"
5,59 nM,"Cc1cc(Cl)cc(Cl)c1Oc1ncc(-c2ccc(C(=O)NS(C)(=O)=O)cc2OC2COC2)cc1Cl [Example 584, 4-(5-chloro-6-(2,4-dichloro-6-methylphenoxy)-3-pyridinyl)-N-(methylsulfonyl)-3-(3-oxetanyloxy)benzamide]"
6,92.2 nM,"COc1ncc(Oc2ncc(-c3ccc(C(=O)NS(C)(=O)=O)cc3OC(F)F)cc2Cl)cc1Cl [Example 436, 4-(5-chloro-6-((5-chloro-6-methoxy-3-pyridinyl)oxy)-3-pyridinyl)-3-(difluoromethoxy)-N-(methylsulfonyl)benzamide]"
7,57 nM,"COc1cc(C(=O)NS(C)(=O)=O)ccc1-c1cnc(Oc2ccc(Cl)c(C(F)(F)F)c2)c(Cl)c1 [Example 370, 4-(5-chloro-6-(4-chloro-3-(trifluoromethyl)phenoxy)-3-pyridinyl)-3-methoxy-N-(methylsulfonyl)benzamide]"
8,50.4 nM,"COc1cc(C(=O)NS(C)(=O)=O)ccc1-c1cnc(Oc2cc(Cl)cc(OC(F)(F)F)c2)c(Cl)c1 [Example 372, 4-(5-chloro-6-(3-chloro-5-(trifluoromethoxy)phenoxy)-3-pyridinyl)-3-methoxy-N-(methylsulfonyl)benzamide]"
9,108 nM,"Cc1cc(C(=O)NS(C)(=O)=O)c(F)cc1-c1cnc(Oc2ccc(F)c(Cl)c2)c(Cl)c1 [Example 626, 4-(5-chloro-6-(3-chloro-4-fluorophenoxy)-3-pyridinyl)-2-fluoro-5-methyl-N-(methylsulfonyl)benzamide]"
10,61.2 nM,"CS(=O)(=O)NC(=O)c1cc(F)c(-c2cnc(Oc3ccc(Cl)c(Cl)c3)c(Cl)c2)cc1F [Example 570, 4-(5-chloro-6-(3,4-dichlorophenoxy)-3-pyridinyl)-2,5-difluoro-N-(methylsulfonyl)benzamide]"
11,33.7 nM,"CS(=O)(=O)NC(=O)c1ccc(-c2cnc(Oc3cc(Cl)cc(Cl)c3)c(Cl)c2)c(OC(F)F)c1 [Example 461, 4-(5-chloro-6-(3,5-dichlorophenoxy)-3-pyridinyl)-3-(difluoromethoxy)-N-(methylsulfonyl)benzamide]"

row,Compound,IC50
1,"COc1cc(C(=O)NS(C)(=O)=O)ccc1-c1cnc(Oc2cccc(Cl)c2Cl)c(Cl)c1 [Example 583, 4-(5-Chloro-6-(2,3-Dichlorophenoxy)Pyridin-3-yl)-3-Methoxy-N-(Methylsulfonyl)Benzamide]",30.5 nM
2,"COc1cc(C(=O)NS(C)(=O)=O)ccc1-c1cnc(Oc2c(C)cc(Cl)cc2Cl)c(Cl)c1 [Example 578, 4-(5-Chloro-6-(2,4-Dichloro-6-Methylphenoxy)-Pyridin-3-yl)-3-Methoxy-N-(Methylsulfonyl)Benzamide]",29.6 nM
3,"Cc1cc(Cl)cc(Cl)c1Oc1ncc(-c2cc(F)c(C(=O)NS(C)(=O)=O)cc2Cl)cc1Cl [Example 598, 5-chloro-4-(5-chloro-6-(2,4-dichloro-6-methylphenoxy)-3-pyridinyl)-2-fluoro-N-(methylsulfonyl)benzamide]",18.4 nM

# Same assay, conditions: in-vitro Nav 1.7 PX data
row,IC50,Compound
1,96.5 nM,"CCC(CC)Nc1ncc(-c2cc(F)c(C(=O)NS(C)(=O)=O)cc2OC)cc1Cl [Example 725, 4-(5-chloro-6-((1-ethylpropyl)amino)-3-pyridinyl)-2-fluoro-5-methoxy-N-(methylsulfonyl)benzamide]"
2,110 nM,"COc1cc(C(=O)NS(C)(=O)=O)c(F)cc1-c1cnc(O[C@@H]2CC[C@@H]2C)c(Cl)c1 [Example 770, 4-(5-chloro-6-(((1R,2S)-2-methylcyclobutyl)oxy)-3-pyridinyl)-2-fluoro-5-methoxy-N-(methylsulfonyl)benzamide]"
3,12800 nM,"4-(3-Chloro-4′-Methoxy-2′-Methyl-[2,3′-Bipyridin]-5-yl)-2-Fluoro-5-Methyl-N-(Methylsulfonyl)Benzamide [Example 839]"
4,50 nM,"COc1cc(C(=O)NS(C)(=O)=O)c(F)cc1-c1cnc(O[C@H](C)C2CCC2)c(Cl)c1 (single isomer, unassigned) [Example 769]"
5,114 nM,"COc1cc(C(=O)NS(=O)(=O)N2CCC2)ccc1-c1cnc(Oc2cc(Cl)cc(Cl)c2)c(Cl)c1 [Example 773, N-(1-azetidinylsulfonyl)-4-(5-chloro-6-(3,5-dichlorophenoxy)-3-pyridinyl)-3-methoxybenzamide]"
6,98.8 nM,"Cc1cc(C(=O)NS(=O)(=O)C2CC2)c(F)cc1-c1cnc(OC2CCC2)c(Cl)c1 [Example 797, 4-(5-chloro-6-(cyclobutyloxy)-3-pyridinyl)-N-(cyclopropylsulfonyl)-2-fluoro-5-methylbenzamide]"
7,14 nM,"CS(=O)(=O)NC(=O)c1cc(OC(F)F)c(-c2cnc(Oc3cc(Cl)cc(Cl)c3)c(Cl)c2)cc1F [Example 784, 4-(5-chloro-6-(3,5-dichlorophenoxy)-3-pyridinyl)-5-(difluoromethoxy)-2-fluoro-N-(methylsulfonyl)benzamide]"
8,75.2 nM,"COc1cc(C(=O)NS(C)(=O)=O)c(F)cc1-c1cnc(Oc2c(Cl)ccc(C)c2F)c(Cl)c1 [Example 762, 4-(5-chloro-6-(6-chloro-2-fluoro-3-methylphenoxy)-3-pyridinyl)-2-fluoro-5-methoxy-N-(methylsulfonyl)benzamide]"
9,66.9 nM,"CCS(=O)(=O)NC(=O)c1ccc(-c2cnc(Oc3cccc(Cl)c3C)c(Cl)c2)c(OC)c1 [Example 789, 4-(5-chloro-6-(3-chloro-2-methylphenoxy)-3-pyridinyl)-N-(ethylsulfonyl)-3-methoxybenzamide]"
10,74.7 nM,"COc1cc(C(=O)NS(C)(=O)=O)c(F)cc1-c1cnc(OCc2ccc(Cl)cc2)c(Cl)c1 [Example 750, 4-(5-chloro-6-((4-chlorobenzyl)oxy)-3-pyridinyl)-2-fluoro-5-methoxy-N-(methylsulfonyl)benzamide]"
11,34.5 nM,"Cc1cc(Cl)cc(Cl)c1Oc1ncc(-c2ccc(C(=O)NS(C)(=O)=O)cc2Cl)cc1Cl [Example 776, 3-chloro-4-(5-chloro-6-(2,4-dichloro-6-methylphenoxy)-3-pyridinyl)-N-(methylsulfonyl)benzamide]"
12,8350 nM,"4-(3-Chloro-4′-Methoxy-2′-Methyl-[2,3′-Bipyridin]-5-yl)-2-Fluoro-5-Methyl-N-(Methyl Sulfonyl)Benzamide [Example 840]"
13,179 nM,"Cc1cc(C(=O)NS(C)(=O)=O)c(F)cc1-c1cnc(Oc2cc(Cl)cc(Cl)c2)c(C(F)F)c1 [Example 823, 4-(6-(3,5-Dichlorophenoxy)-5-(Difluoromethyl)Pyridin-3-yl)-2-Fluoro-5-Methyl-N-(Methyl Sulfonyl)Benzamide]"
14,1570 nM,"Cc1cc(C(=O)NS(C)(=O)=O)c(F)cc1-c1ccc(OC(F)(F)C(F)F)cc1 [Example 811, 5-fluoro-2-methyl-N-(methylsulfonyl)-4′-(1,1,2,2-tetrafluoroethoxy)-4-biphenylcarboxamide]"
15,80.5 nM,"COc1cc(C(=O)NS(C)(=O)=O)c(F)cc1-c1cnc(O[C@@H](C)CC(C)C)c(Cl)c1 [Example 726, 4-(5-chloro-6-(((1S)-1,3-dimethylbutyl)oxy)-3-pyridinyl)-2-fluoro-5-methoxy-N-(methylsulfonyl)benzamide]"
16,84.4 nM,"COc1cc(C(=O)NS(C)(=O)=O)c(F)cc1-c1cnc(N[C@@H]2CC23CCCC3)c(Cl)c1 [Example 720, 4-(5-chloro-6-((1R)-spiro[2.4]hept-1-ylamino)-3-pyridinyl)-2-fluoro-5-methoxy-N-(methylsulfonyl)benzamide, 4-(5-chloro-6-((1S)-spiro[2.4]hept-1-ylamino)-3-pyridinyl)-2-fluoro-5-methoxy-N-(methylsulfonyl)benzamide]"
17,44.5 nM,"Cc1c(Cl)cccc1Oc1ncc(-c2cc(F)c(C(=O)NS(C)(=O)=O)cc2OC(F)F)cc1Cl [Example 780, 4-(5-chloro-6-(3-chloro-2-methylphenoxy)-3-pyridinyl)-5-(difluoromethoxy)-2-fluoro-N-(methylsulfonyl)benzamide]"
18,58.7 nM,"COc1cc(C(=O)NS(C)(=O)=O)c(F)cc1-c1cnc(OC2(C(F)(F)F)CCC2)c(Cl)c1 [Example 734, 4-(5-chloro-6-((1-(trifluoromethyl)cyclobutyl)oxy)-3-pyridinyl)-2-fluoro-5-methoxy-N-(methylsulfonyl)benzamide]"

row,Compound,IC50
1,"CS(=O)(=O)NC(=O)c1ccc(-c2cnc(Oc3cc(Cl)cc(Cl)c3)c(Cl)c2)c(Cl)c1 [Example 777, 3-chloro-4-(5-chloro-6-(3,5-dichlorophenoxy)-3-pyridinyl)-N-(methylsulfonyl)benzamide]",40 nM
2,"COc1nccc(C)c1-c1cc(C(=O)NS(C)(=O)=O)ccc1-c1cnc(OCC(C)C)c(Cl)c1 (single isomer, unassigned) [Example 821, 4-(5-Chloro-6-Isobutoxypyridin-3-yl)-3-(2-Methoxy-4-Methylpyridin-3-yl)-N-(Methylsulfonyl)Benzamide]",32000 nM
3,"COc1cc(C(=O)NS(C)(=O)=O)ccc1-c1cnc(Oc2ccnc(OC)c2Cl)c(Cl)c1 [Example 832, 4-(5-chloro-6-((3-chloro-2-methoxy-4-pyridinyl)oxy)-3-pyridinyl)-3-methoxy-N-(methylsulfonyl)benzamide]",92.3 nM
